# In patent publication US5462935A, “Cephalosporin compounds” (Lucky Limited, priority 1990, dated 1995):
# Like-named read-outs stand apart in the source and are kept apart here.
# Assays:
# [1] = tested on: Serratia marcescens ATCC 27117; experiment: minimal inhibitory concentration, two-fold agar dilution; assay type: cell-based; settings: ATCC27117, Muller-Hinton agar, 37° C., 20 hours
# Method in brief: (§1)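 Agar dilution MIC: compound two-fold series in Mueller-Hinton agar; inoculum 10^7 CFU/ml; 37° C, 20 h.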
# [2] = tested on: Salmonella typhimurium ATCC 14028; experiment: as above; assay type: cell-based; settings: Salmonella enterica, Muller-Hinton agar, 37° C., 20 hours
# Method in brief: as §1
# [3] = tested on: Escherichia coli ATCC 10536; experiment: as above; assay type: cell-based; settings: ATCC10536, Muller-Hinton agar, 37° C., 20 hours
# Method in brief: as §1
# [4] = tested on: Pseudomonas aerugionsa ATCC 10145; experiment: as above; assay type: cell-based; settings: ATCC10145, Muller-Hinton agar, 37° C., 20 hours
# Method in brief: as §1
# [5] = tested on: Staphylococcus epidermidis ATCC 10537; experiment: as above; assay type: cell-based; settings: ATCC10537, Muller-Hinton agar, 37° C., 20 hours
# Method in brief: as §1
# [6] = tested on: Klebsiella pneumoniae ATCC 10031; experiment: as above; assay type: cell-based; settings: ATCC10031, Muller-Hinton agar, 37° C., 20 hours
# Method in brief: as §1
# [7] = tested on: Bacillus cereus ATCC 11778; experiment: as above; assay type: cell-based; settings: Bacillus cereus, ATCC11778, 20 h
# Method in brief: as §1
# [8] = tested on: ATCC 12228; experiment: as above; assay type: cell-based; settings: Staphylococcus faecalis, ATCC12228, 20 h
# Method in brief: (§2)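 Each strain, prepared at 10^7 CFU/ml, was inoculated onto Mueller-Hinton agar with a two-fold compound dilution series; growth was assessed following 20 hours' incubation at 37° C.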
# [9] = tested on: Providencia rettgeri ATCC 9250; experiment: as above; assay type: cell-based; settings: ATCC9250, Muller-Hinton agar, 37° C., 20 hours
# Method in brief: as §1
# [10] = tested on: Shigella flexneri ATCC 11836; experiment: as above; assay type: cell-based; settings: ATCC11836, Muller-Hinton agar, 37° C., 20 hours
# Method in brief: as §1
# [11] = tested on: Proteus vulgaris ATCC 6059; experiment: as above; assay type: cell-based; settings: ATCC6059, Muller-Hinton agar, 37° C., 20 hours
# Method in brief: as §1
# [12] = tested on: Shigella sonnei ATCC 11060; experiment: as above; assay type: cell-based; settings: ATCC11060, Muller-Hinton agar, 37° C., 20 hours
# Method in brief: as §1
# [13] = tested on: Morganella morganii ATCC 8076h; experiment: as above; assay type: cell-based; settings: ATCC8076H, 20 h
# Method in brief: as §2
# [14] = tested on: Staphylococcus aureus ATCC 6638p; experiment: as above; assay type: cell-based; settings: ATCC6638P, 20 h
# Method in brief: as §2
# [15] = tested on: Pseudomonas aerugionsa ATCC 27853; experiment: as above; assay type: cell-based; settings: ATCC27853, Muller-Hinton agar, 37° C., 20 hours
# Method in brief: as §1
# [16] = tested on: Micrococcus luteus ATCC 9341; experiment: as above; assay type: cell-based; settings: ATCC9341, Muller-Hinton agar, 37° C., 20 hours
# Method in brief: as §1
# [17] = tested on: Bacillus megaterium ATCC 9885; experiment: as above; assay type: cell-based; settings: Priestia megaterium, ATCC9885, 20 h
# Method in brief: as §1
# [18] = tested on: Enterobacter aerogenes ATCC 29751; experiment: as above; assay type: cell-based; settings: Klebsiella aerogenes, ATCC29751, 20 h
# Method in brief: as §1
# [19] = tested on: Escherichia coli ATCC 25922; experiment: as above; assay type: cell-based; settings: ATCC25922, Muller-Hinton agar, 37° C., 20 hours
# Method in brief: as §1
# [20] = tested on: Acinetobacter calcoaceticus ATCC 15473; experiment: as above; assay type: cell-based; settings: ATCC15473, Muller-Hinton agar, 37° C., 20 hours
# Method in brief: as §1
# [21] = tested on: Citrobacter freundii ATCC 8090; experiment: as above; assay type: cell-based; settings: ATCC8090, Muller-Hinton agar, 37° C., 20 hours
# Method in brief: as §1
# [22] = tested on: Streptococcus faecalis ATCC 29212; experiment: as above; assay type: cell-based; settings: Enterococcus faecalis, ATCC29212, Muller-Hinton agar, 37° C., 20 hours
# Method in brief: as §1
# [23] = tested on: Proteus mirabilis ATCC 25933; experiment: as above; assay type: cell-based; settings: ATCC25933, Muller-Hinton agar, 37° C., 20 hours
# Method in brief: as §1
# [24] = tested on: Enterobacter cloacae ATCC 27508; experiment: as above; assay type: cell-based; settings: ATCC27508, Muller-Hinton agar, 37° C., 20 hours
# Method in brief: as §1
# [25] = tested on: Pseudomonas aeruginosa ATCC 25619; experiment: as above; assay type: cell-based; settings: ATCC25619, Muller-Hinton agar, 37° C., 20 hours
# Method in brief: as §1
# [26] = acute toxicity test, intravenous; settings: mouse, in vivo, ICR mice, observed for 14 days
# From the text: The results are shown in the last row of Table 2.
# [27] = in vivo absorbency test (plasma concentration, pharmacokinetic parameters); parameters: species or system SD rats (male); settings: rat, iv, 20 mg/kg, rats
# Description: In addition to the in vitro tests described above, in vivo absorbency tests for the two selected compounds of formulas (I-S-1) and (I-R-1), along with Ceftadizime, were carried out by administering intravenously, in a dose of 20 mg/kg, each of these two compounds into SD rats (male) weighing 220 to 340 g; […], which were analyzed by employing the bio-assay or agar well method. About 10 to 15 rats were used for each of the compounds.
# Notes: (1) Two-Compartment Model
# (3) Tested Animal: Rats(male; 220-340 g)
structure (smiles),measurement,setting,value
"C[C@@H](O/N=C(\C(=O)NC1C(=O)N2C(C(=O)[O-])=C(CSc3nc(N)cc(N)[n+]3N)CS[C@H]12)c1csc(N)n1)C(=O)O (stereo partly drawn) [I-R-1, 7-[(Z)-2-(2-aminothiazol-4-yl)-2-[(R)-1-carboxyeth-1-oxyimino]acetamido]-3-[(1,4,6-triaminopyrimidinium-2-yl)thiomethyl]-3-cephem-4-carboxylate]",MIC,[1],0.031 µg/mL
same,MIC,[2],0.063 µg/mL
same,MIC,[3],0.031 µg/mL
same,MIC,[4],2 µg/mL
same,MIC,[5],4 µg/mL
same,MIC,[6],0.031 µg/mL
same,MIC,[7],128 µg/mL
same,MIC,[8],2 µg/mL
same,MIC,[9],≤ 0.008 µg/mL
same,MIC,[10],≤ 0.008 µg/mL
same,MIC,[11],0.031 µg/mL
same,MIC,[12],0.016 µg/mL
same,MIC,[13],≤ 0.008 µg/mL
same,MIC,[14],8 µg/mL
same,MIC,[15],1 µg/mL
same,MIC,[16],1 µg/mL
same,MIC,[17],0.5 µg/mL
same,MIC,[18],0.5 µg/mL
same,MIC,[19],0.031 µg/mL
same,MIC,[20],2 µg/mL
same,MIC,[21],0.031 µg/mL
same,MIC,[22],> 128 µg/mL
same,MIC,[23],0.031 µg/mL
same,MIC,[24],0.016 µg/mL
same,MIC,[25],0.5 µg/mL
same,LD50 at 336 h,[26],> 5000 mg/kg
same,half-life,"[27]; plasma, Two-Compartment Model, read-out: T1/1(β)",30 min
same,half-life,"[27]; plasma, Two-Compartment Model, read-out: T1/2(α)",4.7 min
same,concentration at 1 min,"[27]; plasma, 1 min, read-out: Plasma Conc.",170000 ng/mL
same,concentration at 2.5 min,"[27]; plasma, 2.5 min, read-out: Plasma Conc.",102000 ng/mL
same,concentration at 5 min,"[27]; plasma, 5 min, read-out: Plasma Conc.",76900 ng/mL
same,concentration at 10 min,"[27]; plasma, 10 min, read-out: Plasma Conc.",57000 ng/mL
same,concentration at 20 min,"[27]; plasma, 20 min, read-out: Plasma Conc.",39100 ng/mL
same,concentration at 40 min,"[27]; plasma, 40 min, read-out: Plasma Conc.",17700 ng/mL
same,concentration at 1 h,"[27]; plasma, 60 min, read-out: Plasma Conc.",10100 ng/mL
same,concentration at 2 h,"[27]; plasma, 120 min, read-out: Plasma Conc.",2500 ng/mL
same,concentration at 3 h,"[27]; plasma, 180 min, read-out: Plasma Conc.",700 ng/mL
same,AUC,"[27]; plasma, Two-Compartment Model, read-out: ACU (converted)",45800 ng·h/mL
same,dose excreted,"[27]; urine, read-out: Urinary recovery",91%
